Experimental data reported in ChEMBL document CHEMBL5724914, “Linking interpersonal differences in gut microbiota composition and drug biotransformation activity” (2024).

Test: (§1) The drug is tested on WLS-086 corresponding to human gut metagenome with ENA study accession number: PRJEB37062 and ENA sample accession number: ERS12561752 for biotransformation under anaerobic condition. The drug concentrations were measured over 9 timepoints collected between 0 and 24 hours of incubation by liquid-chromatography-coupled mass spectrometry (LC–MS)
Details: 2 µM
Also: call rule not given here.

Bacterial Biotransformation	SMILES
Compound metabolized	COc1ccc2[nH]c([S+]([O-])Cc3ncc(C)c(OC)c3C)nc2c1 (stereo not given) [OMEPRAZOLE]
Compound metabolized	Clc1ccc(Cn2c(CN3CCCC3)nc3ccccc32)cc1 [CLEMIZOLE]

SMILES	Bacterial Biotransformation
COc1cc2c(c(OC)c1OC)-c1ccc(OC)c(=O)cc1[C@@H](NC(C)=O)CC2 [COLCHICINE]	Compound NOT metabolized

Test: as §1, with “Z-018” for “WLS-086”, “pig” for “human”, “ERS12561817” for “ERS12561752”
Details: 2 µM

Bacterial Biotransformation	SMILES
Compound NOT metabolized	COc1ccc2[nH]c([S+]([O-])Cc3ncc(C)c(OC)c3C)nc2c1 (stereo not given) [OMEPRAZOLE]
Compound metabolized	Clc1ccc(Cn2c(CN3CCCC3)nc3ccccc32)cc1 [CLEMIZOLE]

SMILES	Bacterial Biotransformation
COc1cc2c(c(OC)c1OC)-c1ccc(OC)c(=O)cc1[C@@H](NC(C)=O)CC2 [COLCHICINE]	Compound NOT metabolized

Details: human gut metagenome, 24 h, 2 µM

Bacterial Biotransformation	SMILES
Compound metabolized	COc1ccc2[nH]c([S+]([O-])Cc3ncc(C)c(OC)c3C)nc2c1 (stereo not given) [OMEPRAZOLE]
Compound metabolized	Clc1ccc(Cn2c(CN3CCCC3)nc3ccccc32)cc1 [CLEMIZOLE]

SMILES	Bacterial Biotransformation
COc1cc2c(c(OC)c1OC)-c1ccc(OC)c(=O)cc1[C@@H](NC(C)=O)CC2 [COLCHICINE]	Compound NOT metabolized

Test: as §1, with “Z-014” for “WLS-086”, “rat” for “human”, “ERS12561814” for “ERS12561752”
Details: 2 µM

Bacterial Biotransformation	SMILES
Compound NOT metabolized	COc1ccc2[nH]c([S+]([O-])Cc3ncc(C)c(OC)c3C)nc2c1 (stereo not given) [OMEPRAZOLE]
Compound NOT metabolized	Clc1ccc(Cn2c(CN3CCCC3)nc3ccccc32)cc1 [CLEMIZOLE]

SMILES	Bacterial Biotransformation
COc1cc2c(c(OC)c1OC)-c1ccc(OC)c(=O)cc1[C@@H](NC(C)=O)CC2 [COLCHICINE]	Compound NOT metabolized

Details: human gut metagenome, 24 h, 2 µM
Remark: another data set of the same source

Bacterial Biotransformation	SMILES
Compound metabolized	COc1ccc2[nH]c([S+]([O-])Cc3ncc(C)c(OC)c3C)nc2c1 (stereo not given) [OMEPRAZOLE]
Compound metabolized	Clc1ccc(Cn2c(CN3CCCC3)nc3ccccc32)cc1 [CLEMIZOLE]

SMILES	Bacterial Biotransformation
COc1cc2c(c(OC)c1OC)-c1ccc(OC)c(=O)cc1[C@@H](NC(C)=O)CC2 [COLCHICINE]	Compound NOT metabolized

Test: as §1, with “Z-023” for “WLS-086”, “to” for “to human gut”, “ERS12561822” for “ERS12561752”
Details: 2 µM

Bacterial Biotransformation	SMILES
Compound NOT metabolized	COc1ccc2[nH]c([S+]([O-])Cc3ncc(C)c(OC)c3C)nc2c1 (stereo not given) [OMEPRAZOLE]
Compound metabolized	Clc1ccc(Cn2c(CN3CCCC3)nc3ccccc32)cc1 [CLEMIZOLE]

SMILES	Bacterial Biotransformation
COc1cc2c(c(OC)c1OC)-c1ccc(OC)c(=O)cc1[C@@H](NC(C)=O)CC2 [COLCHICINE]	Compound metabolized

Details: human gut metagenome, 24 h, 2 µM
Remark: another data set of the same source

Bacterial Biotransformation	SMILES
Compound metabolized	COc1ccc2[nH]c([S+]([O-])Cc3ncc(C)c(OC)c3C)nc2c1 (stereo not given) [OMEPRAZOLE]
Compound metabolized	Clc1ccc(Cn2c(CN3CCCC3)nc3ccccc32)cc1 [CLEMIZOLE]

SMILES	Bacterial Biotransformation
COc1cc2c(c(OC)c1OC)-c1ccc(OC)c(=O)cc1[C@@H](NC(C)=O)CC2 [COLCHICINE]	Compound metabolized

Details: human gut metagenome, 24 h, 2 µM
Remark: another data set of the same source

Bacterial Biotransformation	SMILES
Compound metabolized	COc1ccc2[nH]c([S+]([O-])Cc3ncc(C)c(OC)c3C)nc2c1 (stereo not given) [OMEPRAZOLE]
Compound NOT metabolized	Clc1ccc(Cn2c(CN3CCCC3)nc3ccccc32)cc1 [CLEMIZOLE]

SMILES	Bacterial Biotransformation
COc1cc2c(c(OC)c1OC)-c1ccc(OC)c(=O)cc1[C@@H](NC(C)=O)CC2 [COLCHICINE]	Compound metabolized

Details: human gut metagenome, 24 h, 2 µM
Remark: another data set of the same source

Bacterial Biotransformation	SMILES
Compound metabolized	COc1ccc2[nH]c([S+]([O-])Cc3ncc(C)c(OC)c3C)nc2c1 (stereo not given) [OMEPRAZOLE]
Compound metabolized	Clc1ccc(Cn2c(CN3CCCC3)nc3ccccc32)cc1 [CLEMIZOLE]

SMILES	Bacterial Biotransformation
COc1cc2c(c(OC)c1OC)-c1ccc(OC)c(=O)cc1[C@@H](NC(C)=O)CC2 [COLCHICINE]	Compound metabolized

Details: human gut metagenome, 24 h, 2 µM
Remark: another data set of the same source

Bacterial Biotransformation	SMILES
Compound metabolized	COc1ccc2[nH]c([S+]([O-])Cc3ncc(C)c(OC)c3C)nc2c1 (stereo not given) [OMEPRAZOLE]
Compound metabolized	Clc1ccc(Cn2c(CN3CCCC3)nc3ccccc32)cc1 [CLEMIZOLE]

SMILES	Bacterial Biotransformation
COc1cc2c(c(OC)c1OC)-c1ccc(OC)c(=O)cc1[C@@H](NC(C)=O)CC2 [COLCHICINE]	Compound metabolized

Details: human gut metagenome, 24 h, 2 µM
Remark: another data set of the same source

Bacterial Biotransformation	SMILES
Compound metabolized	COc1ccc2[nH]c([S+]([O-])Cc3ncc(C)c(OC)c3C)nc2c1 (stereo not given) [OMEPRAZOLE]
Compound NOT metabolized	Clc1ccc(Cn2c(CN3CCCC3)nc3ccccc32)cc1 [CLEMIZOLE]

SMILES	Bacterial Biotransformation
COc1cc2c(c(OC)c1OC)-c1ccc(OC)c(=O)cc1[C@@H](NC(C)=O)CC2 [COLCHICINE]	Compound metabolized

Test: as §1, with “Z-016” for “WLS-086”, “mouse” for “human”, “ERS12561815” for “ERS12561752”
Details: 2 µM

Bacterial Biotransformation	SMILES
Compound metabolized	COc1ccc2[nH]c([S+]([O-])Cc3ncc(C)c(OC)c3C)nc2c1 (stereo not given) [OMEPRAZOLE]
Compound NOT metabolized	Clc1ccc(Cn2c(CN3CCCC3)nc3ccccc32)cc1 [CLEMIZOLE]

SMILES	Bacterial Biotransformation
COc1cc2c(c(OC)c1OC)-c1ccc(OC)c(=O)cc1[C@@H](NC(C)=O)CC2 [COLCHICINE]	Compound metabolized

Details: human gut metagenome, 24 h, 2 µM
Remark: another data set of the same source

Bacterial Biotransformation	SMILES
Compound metabolized	COc1ccc2[nH]c([S+]([O-])Cc3ncc(C)c(OC)c3C)nc2c1 (stereo not given) [OMEPRAZOLE]
Compound metabolized	Clc1ccc(Cn2c(CN3CCCC3)nc3ccccc32)cc1 [CLEMIZOLE]

SMILES	Bacterial Biotransformation
COc1cc2c(c(OC)c1OC)-c1ccc(OC)c(=O)cc1[C@@H](NC(C)=O)CC2 [COLCHICINE]	Compound metabolized

Test: as §1, with “Z-030” for “WLS-086”, “mouse” for “human”, “ERS12561829” for “ERS12561752”
Details: 2 µM

Bacterial Biotransformation	SMILES
Compound metabolized	COc1ccc2[nH]c([S+]([O-])Cc3ncc(C)c(OC)c3C)nc2c1 (stereo not given) [OMEPRAZOLE]
Compound NOT metabolized	Clc1ccc(Cn2c(CN3CCCC3)nc3ccccc32)cc1 [CLEMIZOLE]

SMILES	Bacterial Biotransformation
COc1cc2c(c(OC)c1OC)-c1ccc(OC)c(=O)cc1[C@@H](NC(C)=O)CC2 [COLCHICINE]	Compound NOT metabolized

Test: as §1, with “Z-019” for “WLS-086”, “rat” for “human”, “ERS12561818” for “ERS12561752”
Details: 2 µM

Bacterial Biotransformation	SMILES
Compound NOT metabolized	COc1ccc2[nH]c([S+]([O-])Cc3ncc(C)c(OC)c3C)nc2c1 (stereo not given) [OMEPRAZOLE]
Compound NOT metabolized	Clc1ccc(Cn2c(CN3CCCC3)nc3ccccc32)cc1 [CLEMIZOLE]

SMILES	Bacterial Biotransformation
COc1cc2c(c(OC)c1OC)-c1ccc(OC)c(=O)cc1[C@@H](NC(C)=O)CC2 [COLCHICINE]	Compound NOT metabolized

Test: as §1, with “WLS-310” for “WLS-086”, “ERS12561785” for “ERS12561752”
Details: 2 µM

Bacterial Biotransformation	SMILES
Compound metabolized	COc1ccc2[nH]c([S+]([O-])Cc3ncc(C)c(OC)c3C)nc2c1 (stereo not given) [OMEPRAZOLE]
Compound metabolized	Clc1ccc(Cn2c(CN3CCCC3)nc3ccccc32)cc1 [CLEMIZOLE]

SMILES	Bacterial Biotransformation
COc1cc2c(c(OC)c1OC)-c1ccc(OC)c(=O)cc1[C@@H](NC(C)=O)CC2 [COLCHICINE]	Compound metabolized

Details: human gut metagenome, 24 h, 2 µM
Remark: another data set of the same source

Bacterial Biotransformation	SMILES
Compound metabolized	COc1ccc2[nH]c([S+]([O-])Cc3ncc(C)c(OC)c3C)nc2c1 (stereo not given) [OMEPRAZOLE]
Compound metabolized	Clc1ccc(Cn2c(CN3CCCC3)nc3ccccc32)cc1 [CLEMIZOLE]

SMILES	Bacterial Biotransformation
COc1cc2c(c(OC)c1OC)-c1ccc(OC)c(=O)cc1[C@@H](NC(C)=O)CC2 [COLCHICINE]	Compound NOT metabolized

Details: human gut metagenome, 24 h, 2 µM
Remark: another data set of the same source

Bacterial Biotransformation	SMILES
Compound metabolized	COc1ccc2[nH]c([S+]([O-])Cc3ncc(C)c(OC)c3C)nc2c1 (stereo not given) [OMEPRAZOLE]
Compound metabolized	Clc1ccc(Cn2c(CN3CCCC3)nc3ccccc32)cc1 [CLEMIZOLE]

SMILES	Bacterial Biotransformation
COc1cc2c(c(OC)c1OC)-c1ccc(OC)c(=O)cc1[C@@H](NC(C)=O)CC2 [COLCHICINE]	Compound NOT metabolized

Details: human gut metagenome, 24 h, 2 µM
Remark: another data set of the same source

Bacterial Biotransformation	SMILES
Compound metabolized	COc1ccc2[nH]c([S+]([O-])Cc3ncc(C)c(OC)c3C)nc2c1 (stereo not given) [OMEPRAZOLE]
Compound metabolized	Clc1ccc(Cn2c(CN3CCCC3)nc3ccccc32)cc1 [CLEMIZOLE]

SMILES	Bacterial Biotransformation
COc1cc2c(c(OC)c1OC)-c1ccc(OC)c(=O)cc1[C@@H](NC(C)=O)CC2 [COLCHICINE]	Compound NOT metabolized

Test: as §1, with “Z-025” for “WLS-086”, “rabbit” for “human”, “ERS12561824” for “ERS12561752”
Details: 2 µM

Bacterial Biotransformation	SMILES
Compound metabolized	COc1ccc2[nH]c([S+]([O-])Cc3ncc(C)c(OC)c3C)nc2c1 (stereo not given) [OMEPRAZOLE]
Compound metabolized	Clc1ccc(Cn2c(CN3CCCC3)nc3ccccc32)cc1 [CLEMIZOLE]

SMILES	Bacterial Biotransformation
COc1cc2c(c(OC)c1OC)-c1ccc(OC)c(=O)cc1[C@@H](NC(C)=O)CC2 [COLCHICINE]	Compound NOT metabolized
